Laboratory results published in ChEMBL document CHEMBL1158439, “Non-isotopic dual parameter competition assay suitable for high-throughput screening of histone deacetylases” (Bioorg Med Chem Lett, 2009).

Key:
[1] = target: T1, Histone deacetylase-like amidohydrolase (Alcaligenes sp. (strain DSM 11172) (Bordetella sp. (strain FB188)), UniProt Q70I53); assay: Displacement of Atto700-HA from Bordetella / Alcaligenes strain FB188 HDAH by fluorescence anisotropy; parameters: species or system Alcaligenaceae bacterium FB188
T1 sequence (Q70I53 whole entry): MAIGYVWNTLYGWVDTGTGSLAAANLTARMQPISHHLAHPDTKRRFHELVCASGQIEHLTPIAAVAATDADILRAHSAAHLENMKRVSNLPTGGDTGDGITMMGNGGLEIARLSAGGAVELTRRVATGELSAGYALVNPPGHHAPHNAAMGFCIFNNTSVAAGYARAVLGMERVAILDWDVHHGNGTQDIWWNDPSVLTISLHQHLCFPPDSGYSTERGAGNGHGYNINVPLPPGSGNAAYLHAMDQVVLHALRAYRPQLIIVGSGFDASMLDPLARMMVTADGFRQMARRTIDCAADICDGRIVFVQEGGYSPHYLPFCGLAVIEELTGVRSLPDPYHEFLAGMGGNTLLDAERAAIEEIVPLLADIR

[2] = target: T1, Histone deacetylase-like amidohydrolase (Alcaligenes sp. (strain DSM 11172) (Bordetella sp. (strain FB188)), UniProt Q70I53); assay: Inhibition of Bordetella / Alcaligenes strain FB188 HDAH by fluorogenic enzyme assay; parameters: species or system Alcaligenaceae bacterium FB188
[3] = target: T1, Histone deacetylase-like amidohydrolase (Alcaligenes sp. (strain DSM 11172) (Bordetella sp. (strain FB188)), UniProt Q70I53); assay: Binding affinity to Bordetella / Alcaligenes strain FB188 HDAC by FRET assay; parameters: species or system Alcaligenaceae bacterium FB188
[4] = Displacement of Atto700-HA from Bordetella / Alcaligenes strain FB188 […] by fluorescence anisotropy; parameters: species or system Alcaligenaceae bacterium FB188
[5] = Inhibition of HDAC from RT extract
[6] = target: T1, Histone deacetylase-like amidohydrolase (Alcaligenes sp. (strain DSM 11172) (Bordetella sp. (strain FB188)), UniProt Q70I53); assay: Inhibition of Bordetella / Alcaligenes strain FB188 HDAH by fluorimetric assay; parameters: species or system Alcaligenaceae bacterium FB188
[7] = Inhibition of Bordetella / Alcaligenes strain FB188 HDAC6 by fluorescence polarization assay; parameters: species or system Alcaligenaceae bacterium FB188
[8] = Inhibition of Bordetella / Alcaligenes strain FB188 HDAC6 by fluorogenic enzyme assay

SMILES | Ki [1] | IC50 [2] | IC50 [4] | IC50 [5] | IC50 [6] | IC50 [8] | Ki [3] | IC50 [7]
CCCCCCCCCCCC[C@@H](C)O[C@@H]1O[C@H](CO)[C@@H](O)[C@H](O)[C@H]1O[C@@H]1O[C@H](COC(C)=O)[C@@H](O)[C@H](O)[C@H]1O | 10000 nM | 6200 nM | > 50000 nM | > 50000 nM | – | – | 2000 nM | –
CCCCCC1OC1CC#CCCCCCCCC(=O)O (configuration not stated) | 20000 nM | 9200 nM | > 20000 nM | – | – | – | 4300 nM | –
Nc1ccccc1NC(=O)c1ccc(CNC(=O)OCc2cccnc2)cc1 [ENTINOSTAT] | > 100000 nM | 118000 nM | – | 8800 nM | – | > 10000 nM | – | –
CCC(=O)CCCCC[C@@H]1NC(=O)[C@H]2CCCCN2C(=O)[C@H]([C@@H](C)CC)NC(=O)[C@H](Cc2cn(OC)c3ccccc23)NC1=O [APICIDIN] | 9200 nM | – | – | – | – | – | – | 670 nM

The next compounds have a lower Ki [1] than those just listed; values first:

Ki [1] | IC50 [2] | IC50 [4] | IC50 [5] | IC50 [6] | IC50 [8] | SMILES | Ki [3] | IC50 [7]
700 nM | – | – | 1 nM | 1200 nM | – | CC(/C=C/C(=O)NO)=C\[C@@H](C)C(=O)c1ccc(N(C)C)cc1 [TRICHOSTATIN] | – | 17 nM
1100 nM | 600 nM | > 50000 nM | > 50000 nM | – | – | CCC1=C(OC)C(=O)C(CCCCCCCCCCC(C)=O)=C(C)C1=O | – | –
1400 nM | 600 nM | 70 nM | 600 nM | – | – | O=C(CCCCCc1nc2cc3ccccc3cc2[nH]1)C(F)(F)F | – | –
